Row | SMILES | melting point [°C]
1 | O=C1NC(=O)C(=NO)C(=O)N1 | 236 to 242
2 | CC(O)Cn1cnc2c1c(=O)n(C)c(=O)n2C (stereo not given) | 136
3 | Clc1c(Cl)c(Cl)c2c(c1Cl)Oc1ccccc1O2 | 188
4 | O=C(CCl)C(Cl)(Cl)Cl | 65
5 | CC1=C(C)CC(Cl)(Cl)C(=O)C(Cl)(Cl)C1 | 91
6 | Clc1ccc(CSC(Cn2cncn2)=Nc2ccc(Cl)cc2Cl)cc1 | 90
7 | ON=CNc1ncccn1 | 184 to 186
8 | CC(C)(C)OC(=O)NC1CCNC1 (stereo not given) | 67
9 | CC(=O)CC(C)(C)C | -64
10 | CC(=O)c1cc(C(C)=O)c(O)cc1O | 180
11 | CC1(C)C(C=NO)=[N+]([O-])C(C)(C)N1O | 157 to 159
12 | COC(=O)C1=C(C(=O)OC)Cc2cc3c(cc2C1)CC(C(=O)OC)=C(C(=O)OC)C3 | 209
13 | CNC(=O)ON=C1C(Cl)C2CC(C#N)C1C2 (stereo not given) | 144
14 | O=C(O)CCC(F)(F)C(F)(F)C(F)(F)C(F)(F)C(F)(F)C(F)(F)F | 62 to 64
15 | CCCCNC(=O)OC#CCI | 66
16 | CN1CCNCC1 | -6
17 | CN1CCN(C2CCNCC2)CC1 | 54.5
18 | Cc1noc(C)c1C=O | 35 to 38
19 | CCCCCBr | -92.7
20 | CC(C)(C)Oc1ncc(Br)cn1 | 62
21 | COc1cc(CC(=O)O)c([N+](=O)[O-])cc1OC | 111 to 112
22 | CCCCCOC(=O)CCCCC | -47
23 | CCOC(=O)Nc1c([N+](=O)[O-])cc(C)cc1[N+](=O)[O-] | 65

Row | SMILES | melting point [°C]
24 | COc1ccc(C(O)(c2cncnc2)C2CC2)cc1 (stereo not given) | 110
25 | NC(=O)CF | 108
26 | Clc1c(Cl)c(Cl)c2c(oc3c(Cl)c(Cl)c(Cl)c(Cl)c32)c1Cl | 258
27 | Cc1cc(C)n(C)n1 | 35.5
28 | Fc1ccc(C2(Cn3cncn3)OC2c2ccccc2Cl)cc1 (stereo not given) | 137
29 | Cc1cc(C(=O)O)c(C)o1 | 135 to 139
30 | Nc1cc(Cl)c([N+](=O)[O-])cc1Cl | 155
31 | CCc1cccc(C)c1N(C(=O)CCl)C(C)COC (stereo not given) | -40
32 | Cc1ccc(S(=O)(=O)OC2CCC3(C)C(CCC4C5CCC(=O)C5(C)CCC43)C2)cc1 (stereo not given) | 164 to 166
33 | N#Cc1c(Cl)c(Cl)nc(Cl)c1Cl | 139 to 142
34 | Cc1cc(C(F)(F)F)c(C#N)c(=S)[nH]1 | 200
35 | Cc1ccc(/C=N/c2nc(C(F)(F)F)n[nH]2)cc1 | 207 to 209
36 | N#Cc1ccnc(C#N)c1 | 90
37 | COCC(C)OC(C)=O (stereo not given) | -87
38 | OCC#CC#CCO | 112
39 | O=Cc1cnc(N2CCCCC2)s1 | 49
40 | C1CCN(C2CCNCC2)C1 | 52 to 57
41 | BrC(Br)c1ccccc1C(Br)Br | 116
42 | COC1OC(COC(C)=O)C(OC2OC(COC(C)=O)C(OC(C)=O)C(OC(C)=O)C2OC(C)=O)C(OC(C)=O)C1OC(C)=O (stereo not given) | 131
43 | S=C(SSC(=S)N1CCCCC1)N1CCCCC1 | 138
44 | Clc1cc(Br)cc(Br)c1 | 93
45 | Cc1c([N+](=O)[O-])cc2c(c1[N+](=O)[O-])C(C)(C)CC2(C)C | 132
46 | Oc1cc(Cl)c(Cl)c(Cl)c1Cl | 116

Results, then the molecule that gave them:

Row | melting point [°C] | SMILES
47 | 242 to 243 | COC(=O)CCC(C)C1CCC2C3C(=O)CC4CC(=O)CCC4(C)C3CC(=O)C12C (stereo not given)
48 | 165 | O=C(O)c1cccc(N=C=S)c1
49 | 5 | CC(=O)c1ccccc1O
50 | 55.5 | Cc1cc(C)c2ccccc2c1C
51 | 160 | Nc1ccc2[nH]nnc2c1
52 | -23 to -22 | FC(F)(F)c1ccc(Cl)c(Br)c1
53 | 182 | CC12CCC(=O)C3OC31CC(C1(O)CCC3(C)C(=O)CCC34OC14)C2=O (stereo not given)
54 | 72 to 78 | O=C(NCC[C@H](O)C(=O)O)OCc1ccccc1
55 | -45 | COc1ccc(F)cc1
56 | 161 | CCCCC(C#N)(Cn1ccnc1)c1ccccc1 (stereo not given)
57 | 196 | O=C(O)c1ccc(C2CCCCC2)cc1
58 | 238 | O=C(O)c1ccccc1C(c1ccc(O)cc1)c1ccc(O)cc1
59 | 61 | CC(C)C(OC(=O)c1cccnc1)c1ccc(Cl)cc1 (stereo not given)
60 | 136 to 139 | O=c1oc(=O)n(Cc2ccccc2)c2ccccc12
61 | 113 to 115 | O=C(Oc1c(F)c(F)c(F)c(F)c1F)c1ccc(-c2ccccc2)nc1
62 | 20.5 | CC=CC(=O)c1ccccc1
63 | 230 to 234 | Cc1cc([N+](=O)[O-])c[nH]c1=O
64 | 295 | CC(=O)N1C(=O)Cc2cc3c(cc21)N(C(C)=O)C(=O)C3
65 | 180 | NS(=O)(=O)c1c(Cl)cc(Cl)cc1Cl
66 | 197 to 199 | O=CC(C=O)c1cnc2ccccc2n1
67 | 131 | O=[N+]([O-])c1cc(Br)cc2c1NCC2
68 | 175 to 177 | N#Cn1c(N)nc2ccccc21
69 | 154 | CC1(C)C(=O)Nc2ccccc21
70 | 208 to 209 | COC(=O)c1cnc(SCC(=O)NC(=O)Nc2ccc(Cl)cc2)n1C
71 | 81 | Cc1cc(C#N)ccc1[N+](=O)[O-]

Row | melting point [°C] | SMILES
72 | 175 to 176 | CSC(S)=Nc1ccc(C)cc1
73 | 105 to 106 | O=C1OC(=O)C2CC(c3ccccc3)CCC12 (stereo not given)
74 | 101 to 103 | OCc1cc2cc(Br)ccc2o1
75 | 147 | COc1ccccc1-c1ccc(C=C2C(=O)OC(C)(C)OC2=O)o1
76 | 318 | Cc1cc(=O)[nH]c2c(/N=N/c3cccc([N+](=O)[O-])c3)c(N)nn12
77 | 73 | NNC(=O)c1ccccc1F
78 | 68 | O=C(OCc1ccccc1)N1CCC(CBr)CC1
79 | 222 | COC1=CC(C)C2CC3OC(=O)CC4C(C)=C(OC)C(=O)C(C2(C)C1=O)C34C (stereo not given)
80 | 80 | Nc1c(C=O)cnn1-c1ccc(Cl)cc1
81 | 92 to 94 | O=C(OC1OC(COCc2ccccc2)C(OCc2ccccc2)C1OCc1ccccc1)c1ccc([N+](=O)[O-])cc1 (stereo not given)
82 | 42 | CC(C)(C)c1ccc(N=C=S)cc1
83 | 157 to 160 | O=C1CC2C(Cl)CC1C2C(=O)O (stereo not given)
84 | 238 | CC1(C)OC(=O)C(=NNc2ccc(O)cc2)C(=O)O1
85 | 103 to 105 | NNC(=O)c1ccccc1OC(F)(F)F
86 | -79 | CN1CCCC1c1cccnc1 (stereo not given)
87 | 244 to 247 | Cn1c(-c2ccc(Cl)cc2)cnc1S
88 | 110 | N#Cc1c(NC(=O)c2ccccc2)sc2c1CCCC2
89 | 268 | O=C1NC(=O)C2(CCc3ccccc3C2)N1 (stereo not given)
90 | 95 | O=C(Oc1cccc([N+](=O)[O-])c1)c1ccccc1
91 | 115 | O=Cc1cccc2cnccc12
92 | 335 to 338 | O=C1CCC(c2ccc(NC(=O)Nc3ccccc3)cc2)=NN1
93 | 139 | O=Cc1ccc(O)c(Cl)c1
94 | 129 to 132 | COc1ccc(C(=O)CC#N)cc1
95 | 103 | COc1cc(CC(=O)O)cc(OC)c1

— a melting point compilation (Tetko et al.)
